Experimental data: ChEMBL document CHEMBL1201862, “PubChem BioAssay data set” (2004)
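1) Cells in 96-well plates. 2) Compound, 48 h, 5 concentrations. 3) Linear interpolation between surrounding doses. 4) Unreached endpoint = highest concentration. Abbreviation: GI50, concentration required for 50% inhibition of growth.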 Active and inactive are the calls of the source. No stated cut-off is given here; in the data, active = GI50 up to about 1.1 µM and inactive = higher.

Experiments:
Assay in all cases: growth of human tumour cells (NCI), 48 h
HOP-62 = test system: HOP-62
OVCAR-3 = test system: OVCAR-3
MOLT-4 = test system: MOLT-4
RPMI-8226 = test system: RPMI-8226
HCC 2998 = test system: HCC 2998
M14 = test system: M14
ACHN = test system: ACHN
SK-OV-3 = test system: SK-OV-3
NCI-H460 = test system: NCI-H460
OVCAR-4 = test system: OVCAR-4
UACC-62 = test system: UACC-62
HT-29 = test system: HT-29
SR = test system: SR
UO-31 = test system: UO-31
IGROV-1 = test system: IGROV-1
A498 = test system: A498
T47D = test system: T47D
SW-620 = test system: SW-620
786-0 = test system: 786-0
CAKI-1 = test system: CAKI-1

Measured: GI50

CCOC(=O)CC/C(=N/Nc1ccc(Cl)cc1[N+](=O)[O-])C(=O)OCC
inactive: HOP-62 > 100 µM | OVCAR-3 > 100 µM | MOLT-4 > 100 µM | RPMI-8226 > 100 µM | HCC 2998 26.2 µM | M14 > 100 µM | ACHN > 100 µM | SK-OV-3 > 100 µM | NCI-H460 > 100 µM | OVCAR-4 > 100 µM | UACC-62 > 100 µM | HT-29 > 100 µM | SR 45.7 µM | UO-31 > 100 µM | IGROV-1 > 100 µM | A498 34.8 µM | T47D 93.3 µM | SW-620 > 100 µM | 786-0 > 100 µM

O=C(O)c1ccc(Nc2nc3cc(C(F)(F)F)ccc3n3cccc23)cc1
inactive: HOP-62 41 µM | OVCAR-3 30.2 µM | MOLT-4 25.1 µM | RPMI-8226 12.5 µM | HCC 2998 15.7 µM | M14 25.1 µM | ACHN 24.9 µM | SK-OV-3 40.1 µM | NCI-H460 16.1 µM | UACC-62 23.9 µM | HT-29 10.4 µM | SR 14.3 µM | UO-31 > 100 µM | IGROV-1 29.5 µM | A498 42 µM | T47D 17.3 µM | SW-620 34.7 µM | 786-0 22.7 µM | CAKI-1 47.3 µM

COC(=O)C(CCSC)NC(=O)CSc1nnc(COc2ccc(Cl)cc2)n1-c1ccccc1 (stereo not drawn)
active: RPMI-8226 0.883 µM
inactive: HOP-62 3.08 µM | MOLT-4 13.9 µM | HCC 2998 7.52 µM | M14 18.7 µM | ACHN 18.1 µM | SK-OV-3 14.5 µM | NCI-H460 14.4 µM | OVCAR-4 16.1 µM | UACC-62 18.2 µM | HT-29 18.3 µM | SR 8.53 µM | UO-31 3.94 µM | IGROV-1 16 µM | A498 21.3 µM | T47D 27.5 µM | SW-620 21.7 µM | 786-0 16.3 µM | CAKI-1 16.7 µM

CC/C(N)=N\NC(=O)OC(C)(C)C
inactive: HOP-62 > 100 µM | OVCAR-3 > 100 µM | MOLT-4 > 100 µM | RPMI-8226 > 100 µM | HCC 2998 > 100 µM | M14 > 100 µM | ACHN > 100 µM | SK-OV-3 > 100 µM | OVCAR-4 > 100 µM | UACC-62 > 100 µM | HT-29 > 100 µM | SR > 100 µM | UO-31 > 100 µM | IGROV-1 > 100 µM | A498 > 100 µM | T47D > 100 µM | SW-620 > 100 µM | 786-0 > 100 µM | CAKI-1 > 100 µM

CCC(C=O)P1(=O)OC(C)(C)CN1C(C)(C)C (stereo not drawn)
inactive: HOP-62 62.5 µM | OVCAR-3 20.6 µM | RPMI-8226 65.3 µM | HCC 2998 76.7 µM | M14 > 100 µM | ACHN > 100 µM | SK-OV-3 68.1 µM | NCI-H460 > 100 µM | OVCAR-4 > 100 µM | UACC-62 > 100 µM | HT-29 > 100 µM | SR > 100 µM | UO-31 > 100 µM | IGROV-1 > 100 µM | A498 81.8 µM | T47D 31.6 µM | SW-620 > 100 µM | 786-0 > 100 µM | CAKI-1 > 100 µM

COc1cccc(C2c3cc4c(cc3OC(NNC(N)=O)C2C)OCO4)c1OC (stereo not drawn)
inactive: HOP-62 22 µM | OVCAR-3 17.5 µM | MOLT-4 16.5 µM | RPMI-8226 13 µM | HCC 2998 32 µM | M14 17.1 µM | ACHN 26.9 µM | SK-OV-3 34.2 µM | NCI-H460 23.1 µM | UACC-62 22.3 µM | HT-29 22.4 µM | UO-31 25.6 µM | IGROV-1 23.7 µM | A498 18.2 µM | T47D 27.1 µM | SW-620 22.6 µM | 786-0 4.76 µM | CAKI-1 24.5 µM
active: SR 0.431 µM

COc1cc(/C=C2\N=C(C)N(n3c(-c4ccccc4)nc4ccccc4c3=O)C2=O)cc(OC)c1OC
inactive: HOP-62 > 100 µM | MOLT-4 > 100 µM | RPMI-8226 85.3 µM | HCC 2998 > 100 µM | M14 > 100 µM | ACHN > 100 µM | SK-OV-3 > 100 µM | NCI-H460 > 100 µM | UACC-62 > 100 µM | HT-29 > 100 µM | SR > 100 µM | UO-31 > 100 µM | IGROV-1 > 100 µM | A498 > 100 µM | T47D 82.4 µM | SW-620 > 100 µM | 786-0 > 100 µM | CAKI-1 > 100 µM

CC(=O)NC(=N/N=C1/C(=O)Nc2ccc(C)cc21)NC(C)=O
inactive: HOP-62 > 100 µM | MOLT-4 > 100 µM | RPMI-8226 > 100 µM | HCC 2998 > 100 µM | M14 > 100 µM | ACHN > 100 µM | SK-OV-3 > 100 µM | NCI-H460 > 100 µM | OVCAR-4 > 100 µM | UACC-62 > 100 µM | HT-29 > 100 µM | SR > 100 µM | UO-31 84.1 µM | IGROV-1 > 100 µM | A498 > 100 µM | T47D > 100 µM | SW-620 > 100 µM | 786-0 > 100 µM | CAKI-1 > 100 µM

N#CC1=C(S)N(C2OC(CO)C(O)C(O)C2O)C(c2ccccc2)=CC1c1ccccc1 (stereo not drawn)
inactive: HOP-62 > 100 µM | OVCAR-3 28.3 µM | MOLT-4 29.8 µM | RPMI-8226 46.5 µM | HCC 2998 18.5 µM | M14 37.5 µM | ACHN 62.1 µM | NCI-H460 37.6 µM | OVCAR-4 75.9 µM | UACC-62 21.7 µM | HT-29 48.9 µM | SR 35 µM | UO-31 > 100 µM | IGROV-1 46 µM | A498 59.3 µM | T47D 18.2 µM | SW-620 5.66 µM | 786-0 37.9 µM | CAKI-1 > 100 µM

Cc1cn(C2CC(O)C(Cn3nncc3Cn3nc(Br)c(=O)[nH]c3=O)O2)c(=O)[nH]c1=O (stereo not drawn)
inactive: HOP-62 > 100 µM | OVCAR-3 > 100 µM | MOLT-4 > 100 µM | RPMI-8226 > 100 µM | HCC 2998 > 100 µM | M14 > 100 µM | ACHN > 100 µM | SK-OV-3 > 100 µM | OVCAR-4 > 100 µM | UACC-62 > 100 µM | SR > 100 µM | UO-31 > 100 µM | IGROV-1 > 100 µM | A498 > 100 µM | T47D > 100 µM | SW-620 > 100 µM | 786-0 > 100 µM | CAKI-1 > 100 µM

COc1ccc(-n2c(SC(CN3CCOCC3)CN3CCCC3=O)nc3ccccc3c2=O)cc1 (stereo not drawn)
inactive: OVCAR-3 > 100 µM | MOLT-4 90.8 µM | RPMI-8226 > 100 µM | HCC 2998 > 100 µM | M14 > 100 µM | ACHN 46 µM | SK-OV-3 > 100 µM | NCI-H460 > 100 µM | OVCAR-4 98.6 µM | UACC-62 > 100 µM | HT-29 > 100 µM | SR > 100 µM | UO-31 35.6 µM | IGROV-1 > 100 µM | A498 > 100 µM | T47D > 100 µM | SW-620 > 100 µM | 786-0 > 100 µM | CAKI-1 43.7 µM

C1CCN2CC34CC(CC5CCCN(C6CCCC3N6)C54)C2C1 (stereo not drawn)
inactive: HOP-62 > 100 µM | OVCAR-3 > 100 µM | MOLT-4 > 100 µM | RPMI-8226 > 100 µM | HCC 2998 > 100 µM | M14 > 100 µM | ACHN > 100 µM | SK-OV-3 > 100 µM | NCI-H460 > 100 µM | OVCAR-4 > 100 µM | UACC-62 > 100 µM | HT-29 > 100 µM | SR > 100 µM | IGROV-1 > 100 µM | A498 > 100 µM | T47D > 100 µM | SW-620 > 100 µM | 786-0 84.7 µM | CAKI-1 > 100 µM

O=C1C(Cl)=C(N2CCN(CCOCCO)CC2)C(=O)c2ccccc21
inactive: OVCAR-3 2.85 µM | MOLT-4 2.05 µM | RPMI-8226 3.45 µM | HCC 2998 18.2 µM | M14 9.29 µM | ACHN 7.36 µM | SK-OV-3 15.3 µM | NCI-H460 17.9 µM | OVCAR-4 2.19 µM | UACC-62 6.32 µM | HT-29 16 µM | SR 2.72 µM | UO-31 7.73 µM | IGROV-1 15.3 µM | A498 18.5 µM | T47D 1.85 µM | SW-620 1.72 µM | 786-0 11.7 µM | CAKI-1 15.7 µM

O=C1CC(O)c2c(Br)sc(Br)c21 (stereo not drawn)
inactive: HOP-62 10.6 µM | OVCAR-3 4.69 µM | MOLT-4 1.91 µM | RPMI-8226 2.47 µM | HCC 2998 6 µM | M14 13.9 µM | ACHN 16.2 µM | SK-OV-3 16.6 µM | NCI-H460 16.9 µM | UACC-62 13.4 µM | HT-29 17.7 µM | SR 5.25 µM | UO-31 2.61 µM | IGROV-1 15.9 µM | A498 19.9 µM | T47D 9.59 µM | SW-620 1.93 µM | 786-0 4.1 µM | CAKI-1 2.07 µM

C[C@@H]1C(O)CC[C@H](C)C12CC=CC2=O (stereo partly drawn)
inactive: HOP-62 > 100 µM | OVCAR-3 > 100 µM | MOLT-4 > 100 µM | RPMI-8226 > 100 µM | HCC 2998 > 100 µM | ACHN > 100 µM | SK-OV-3 > 100 µM | NCI-H460 > 100 µM | OVCAR-4 > 100 µM | UACC-62 > 100 µM | HT-29 > 100 µM | SR > 100 µM | UO-31 > 100 µM | IGROV-1 > 100 µM | A498 > 100 µM | T47D > 100 µM | SW-620 > 100 µM | 786-0 > 100 µM | CAKI-1 > 100 µM
